From PubChem BioAssay (NCI)
Values joined by “and” are separate entries in the source; they are usually repeats but may differ in a detail not shown here. Equal values may be shown once.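 Five concentrations, 48 hours, 96-well plates. Here, GI50 denotes the concentration required for 50% inhibition of growth. Definition used: TGI = concentration required for complete inhibition of growth.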 Starred links: 1 amine or outer side, 2 acyl side, 3 side chain; linkers in the order of their positions; H or OH if unused. Positions of bridges follow the written chain, without caps; N, C: chain ends. Non-standard residues stand in square brackets, D forms with d. Residues, ends and D or L forms follow the SMILES beside them. Chains are numbered I, II in the order given. Actinocin(1to9) = Cc1c2oc3c(C)ccc(C(=O)[*:2])c3nc-2c(C(=O)[*:1])c(N)c1=O; NMeV = CN[CH](C(=O)O)C(C)C; Sar = CNCC(=O)O

Tests used:
Test in all cases: inhibition of tumour cell growth, NCI panel, 48 h
UACC-62 melanoma = system: UACC-62 melanoma
HS 578T breast = system: HS 578T breast
CCRF-CEM leukemia = system: CCRF-CEM leukemia
SF-268 CNS = system: SF-268 CNS
SN12C renal = system: SN12C renal
DU-145 prostate = system: DU-145 prostate
SF-539 CNS = system: SF-539 CNS
MCF7 breast = system: MCF7 breast
SR leukemia = system: SR leukemia
HCC-2998 colon = system: HCC-2998 colon

Row | SMILES | TGI (UACC-62 melanoma) [µM] | TGI (HS 578T breast) | TGI (CCRF-CEM leukemia) [µM] | TGI (SF-268 CNS) [µM] | TGI (SN12C renal) | TGI (DU-145 prostate) [µM] | TGI (SF-539 CNS) | TGI (MCF7 breast) [µM] | TGI (SR leukemia) [µM] | TGI (HCC-2998 colon) [µM] | GI50 (SR leukemia) [µM] | GI50 (HS 578T breast) [µM] | GI50 (CCRF-CEM leukemia) [µM]
1 | Clc1ccccc1/C=c1\nc(-c2ccccc2)n2c1nc1ccccc12 | > 100 | > 100 µM | > 100 | 54.6 | > 100 µM | > 100 | 41.9 µM | > 100 | – | – | – | – | –
2 | N#CC(C(=O)c1cccnc1Cl)c1nc2cc(C(F)(F)F)ccc2s1 (centres undefined) | – | – | – | > 100 | > 100 µM | > 100 | > 100 µM | – | – | – | – | – | –
3 | C[C@@H](c1ccccc1)n1c(N)c(-c2ccccn2)c2ccc([N+](=O)[O-])cc2c1=O | > 100 | > 100 µM | > 100 | > 100 | > 100 µM | > 100 | – | – | > 100 | > 100 | – | – | –
4 | COc1ccccc1NC(=S)NN=C(C)c1cccc(C(C)=NNC(=S)Nc2ccccc2OC)n1 | > 100 | – | > 100 | > 100 | > 100 µM | > 100 | 62.4 µM | > 100 | 17.2 | > 100 | – | – | –
5 | CC1(C)O[C@@H]([C@H](O)CO)[C@H](O)[C@@H](C2SCCCS2)O1 | > 100 | – | – | > 100 | > 100 µM | > 100 | > 100 µM | > 100 | > 100 | > 100 | – | – | –
6 | CC(C)(C)OC(=O)n1c2ccccc2c2c(=O)nc(N3CCCCC3)sc21 | > 100 | > 100 µM | > 100 | > 100 | > 100 µM | > 100 | > 100 µM | – | > 100 | – | – | – | –
7 | Cc1cc2c(c(C=Nc3ccccc3O)c1)OC1(C=C2)Oc2ccccc2C(=O)N1C (centres undefined) | 36.2 | 55.3 µM | 46.3 | 36.3 | 46.5 µM | 39.9 | – | – | 48 | 29.2 | – | – | –
8 | OC(c1ccc(F)cc1)C(F)(F)c1nc2ccccc2o1 (centres undefined) | > 100 | – | > 100 | > 100 | – | > 100 | > 100 µM | > 100 | > 100 | > 100 | – | – | –
9 | O=[N+]([O-])c1cccc2nc3ccccc3c(NCCCn3ccnc3[N+](=O)[O-])c12 | 0.0187 | 0.0899 µM and 0.0415 µM | – | – | 0.0722 µM and 0.0198 µM | – | 0.0218 µM and 0.055 µM | 0.00146 | 0.131 | 0.000515 | < 0.0001 | 0.0109 | 0.0218
10 | CC(C)=CCC[C@]1(C)C=Cc2c(O)c3c(c(CC=C(C)C)c2O1)O[C@]12C(=C[C@@H]4CC1C(C)(C)O[C@@]2(C/C=C(/C)C(=O)O)C4=O)C3=O | 4.57 | 9.68 µM | 1.45 | 3.91 | 4.69 µM | – | 0.477 µM | 1.42 | 0.939 | 2.81 | – | – | –
11 | CCOC(=O)C(/C(=N/S(=O)(=O)c1cc(C)c(Cl)cc1[S-])[n+]1ccc(N(C)C)cc1)=C(/O)c1ccc([N+](=O)[O-])cc1 | > 100 | – | 87.2 | > 100 | > 100 µM | > 100 | 53.9 µM | > 100 | > 100 | – | – | – | –
12 | CCOC(=O)c1nc2ccc(C(F)(F)F)cc2nc1NCc1ccc(OC)cc1 | > 100 | > 100 µM | > 100 | > 100 | – | – | > 100 µM | > 100 | > 100 | – | – | – | –
13 | Cc1c(N2C(=O)/C(=C/c3ccc(Cl)cc3)N=C2c2ccccc2)c(=O)n(-c2ccccc2)n1C | 47.1 | – | > 100 | > 100 | > 100 µM | > 100 | 73.6 µM | > 100 | 76.3 | – | – | – | –
14 | CCc1ccccc1N=NC(=O)NNc1ccccc1CC | 23 | – | 65.6 | 35.4 | 35.7 µM | 33.6 | – | 36.3 | 57.1 | 29.9 | – | – | –
15 | COc1cc(NS(C)(=O)=O)ccc1Nc1cc[nH]c2ccc3nccc3c12 | 32.5 | > 100 µM | 40.9 | 25 | 28.2 µM | 27.7 | – | 35.9 | – | – | – | – | –
16 | CCC(C)C1NC(=O)C(NC(=O)c2c3nc4c(C(=O)NC5C(=O)NC(C(C)CC)C(=O)N6CCCC6C(=O)N(C)CC(=O)N(C)C(C(C)C)C(=O)OC5C)ccc(C)c4oc-3c(C)c(=O)c2N)C(C)OC(=O)C(C(C)C)N(C)C(=O)CN(C)C(=O)C2CCCN2C1=O (centres undefined) (I: TIP[Sar][NMeV] / II: TIP[Sar][NMeV]; ester I:1-I:C, II:1-II:C; linker I:N-II:N via Actinocin(1to9); configuration not given here) | 0.0105 | 0.0841 µM | 0.0106 | 0.0586 | 0.192 µM and 0.263 µM | – | 0.00698 µM | – | 0.00257 | 0.0364 | – | – | –
17 | COc1ccc(C2N(c3ccc(F)cc3)C(=O)N3C(c4ccc(OC)cc4)N(c4ccc(F)cc4)C(=O)N23)cc1 (centres undefined) | > 100 | > 100 µM | > 100 | > 100 | > 100 µM | > 100 | > 100 µM | – | > 100 | – | – | – | –
